{
  "source": "patent US20040180855A1",
  "about": "“Methods of treating thrombosis with reduced risk of increased bleeding times” (priority 2003, published 2004)",
  "key": {"[1]": {"molecular_target": "T1, Recombinant tissue plasminogen activator (Homo sapiens, UniProt P00750)", "T1 construct": "purchased Genentech", "T1 sequence (P00750 36-562)": "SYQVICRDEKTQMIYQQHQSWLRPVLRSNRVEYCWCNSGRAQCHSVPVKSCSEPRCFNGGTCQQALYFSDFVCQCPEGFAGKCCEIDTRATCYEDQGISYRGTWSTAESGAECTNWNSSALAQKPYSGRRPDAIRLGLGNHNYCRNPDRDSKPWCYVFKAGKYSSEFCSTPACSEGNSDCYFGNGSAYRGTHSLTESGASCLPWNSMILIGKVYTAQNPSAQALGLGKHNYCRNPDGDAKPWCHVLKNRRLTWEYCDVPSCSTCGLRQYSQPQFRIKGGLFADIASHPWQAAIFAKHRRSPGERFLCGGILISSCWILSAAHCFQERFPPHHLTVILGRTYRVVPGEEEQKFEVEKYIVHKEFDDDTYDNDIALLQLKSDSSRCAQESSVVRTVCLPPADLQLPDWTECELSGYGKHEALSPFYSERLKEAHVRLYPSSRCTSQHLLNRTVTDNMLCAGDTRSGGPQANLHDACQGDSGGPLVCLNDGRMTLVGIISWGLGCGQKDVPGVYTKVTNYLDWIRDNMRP", "assay": "Selectivity assay tissue plasminogen activator", "format": "biochemical", "conditions": "Table 3"}, "[2]": {"tested_on": "human plasma", "assay": "PT clotting time, human plasma", "format": "biochemical", "conditions": "highest concentration tested 100 μM", "procedure": "The term “PT” time as used herein refers to prothrombin times which is intended to refer to the time elapsed between formation of an assay solution and detection of clot formation in the assay solution with use of a PT assay, i.e., an assay employing thromboplastin reagents that are used for evaluating blood coagulation associated with the extrinsic pathway.\n(§1) PT and APTT clotting times were determined as described in Balasubramanian et al., J. Med. Chem., Vol. 36 (1993), at pp. 300-03, incorporated herein by reference. The whole blood aggregation response of rat platelets to collagen was determined using the impedance procedure for a Model 560-CA Chrono-Log aggregometer (Havertown, Pa.)."}, "[3]": {"tested_on": "human plasma", "assay": "APTT clotting time, human plasma", "format": "biochemical", "source_text": "The term “APTT” as used herein means “activated partial thromboplastin times” which is intended to refer to the time elapsed between the formation of an assay solution and the detection of clot formation in the assay solution with use of an APTT assay, i.e., an assay employing an intrinsic pathway activator, such as micronized silica, and a phospholipid component of a thromboplastin reagent (without tissue factor protein) for evaluating coagulation associated with the intrinsic pathway.\nas §1"}, "[4]": {"tested_on": "renal cortex bleeding time", "assay": "Renal cortex bleeding time (RCBT) model", "format": "in vivo", "conditions": "rat, i.v. 12+12 and 24+24 mg/kg+mg/kg/hr, pre- vs post-treatment, FIG. 5", "procedure": "(§2) Experimental Bleeding Time Two models of bleeding time were performed, namely, a renal cortex bleeding model (using template incision of the renal cortex), and a mesenteric artery bleeding model (using severance of small mesenteric arteries).\nIn the renal cortex bleeding time (RCBT) model, both kidneys were exposed by a midline abdominal incision, and the renal capsules were removed to expose the bare renal cortex which was superfused with Ringer's solution maintained at 37° C. […] While observing under 3×-binocular magnifier, the time in sec from injury until bleeding stopped was recorded. Three bleeding times were determined on the right kidney before, and on the left kidney 15 min after, the start of test article infusion. […]\n(§3) Statistical Analysis In the venous and arterial thrombosis procedures, treatment effects on thrombus weight, baseline blood flow, and average blood flow during thrombosis were determined by analysis of variance with Dunnett's test for comparison to the vehicle group. […] Treatment effects on bleeding times were determined by analysis of variance with Dunnett's test for comparison to the vehicle group. Both post-treatment and pre-treatment bleeding times and the relative bleeding time increases in sec were analyzed. […]"}, "[5]": {"tested_on": "mesenteric artery bleeding time", "assay": "Mesenteric artery bleeding time (MABT) model", "format": "in vivo", "conditions": "rat, i.v. 12+12 and 24+24 mg/kg+mg/kg/hr, pre- vs post-treatment, FIG. 6", "procedure": "as §2\nIn the mesenteric artery bleeding time (MABT) model, the abdomen was opened via a midline incision and the small intestine was exteriorized. The jejunum was exposed, held in place with clamps and superfused with Ringer's solution maintained at 37° C. Small arteries that branch perpendicular to the mesenteric artery and course over the surface of the jejunum were observed through an SZH10 stereomicroscope (Olympus Corp., Lake Success, N.Y.). These vessels were punctured with a 30-gauge hypodermic needle and the time in sec from puncturing until bleeding stopped was recorded. Bleeding times were determined in 3-5 arteries before administration of test article and in 3-5 arteries 20 min after the start of test article infusion. […]\nas §3, with “group.” for “group. Both post-treatment and pre-treatment bleeding times and the relative bleeding time increases in sec were analyzed.”"}, "[6]": {"tested_on": "rat plasma (ex vivo APTT)", "assay": "Ex vivo clotting time APTT", "format": "in vivo", "conditions": "for APTT Increase (X Control): average over 15-90 min", "procedure": "Ex Vivo Clotting Times Ex vivo clotting time assays were used to determine the level of anticoagulation achieved in the thrombosis and bleeding time procedures, described above. A small organic compound for inhibiting Factor XIa was administered at doses (mg/kg+mg/kg/hr) of 0.5+0.5 (n=3), 2+2 (n=4), 6+6 (n=3), 12+12 (n=3) and 24+24 (n=10). Carotid artery blood (0.6 mL drawn into 1/10 volume of 3.8% Na-citrate) was sampled before (0 min control) and at 5, 15, 30, 60 and 90 min after the start of the compound infusion. The APTT was determined in freshly prepared plasma from each sample using the standard procedure for Dade Actin FSL reagent (Baxter Healthcare Corp., Miami, Fla.). The PT was determined in some animals from the 6+6 (n=3), 12+12 (n=3) and 24+24 (n=2) dose groups using Dade Thromboplastin●C reagent.\nPlasma was sampled before (0 min control) and after the infusion, at intervals of 5, 15, 30, 60 and 90 min after initiating the infusion. Average APTT increases over the 15-90 min period, an interval most applicable to thrombosis and bleeding time protocols, were calculated. Control APTT values averaged 19.9±1.3 seconds overall. The PT was unaltered as expected from in vitro results. […] The range of efficacious doses in venous and arterial thrombosis (2+2, 6+6, 12+12; mg/kg+mg/kg/hr) produced an APTT increase of about 2.8 times control."}},
  "data": [
    {"smiles": "CC(C)(C)NC(=O)N1CCN(C(=O)N2C(=O)[C@H](CCCNC(=N)N)[C@H]2C(=O)O)CC1", "note": "[Example 4]", "values": [
      {"measurement": "IC50", "setting": "[1]", "value": "> 33", "unit": "µM"},
      {"measurement": "Clotting time PT (human), concentration that doubles clotting time", "setting": "[2]", "value": ">100", "unit": "µM"},
      {"measurement": "Clotting time APTT (human), concentration that doubles clotting time", "setting": "[3]", "value": 0.6, "unit": "µM"},
      {"measurement": "effect on renal cortex bleeding times", "setting": "[4]", "value": "no effect"},
      {"measurement": "effect on mesenteric artery bleeding times", "setting": "[5]", "value": "no effect"},
      {"measurement": "APTT Increase (X Control)", "setting": "[6]; dose 0.5 + 0.5 mg/kg + mg/kg/hr", "value": "1.57 ± 0.22", "unit": "X Control"},
      {"measurement": "APTT Increase (X Control)", "setting": "[6]; dose 2 + 2 mg/kg + mg/kg/hr", "value": "2.81 ± 0.21", "unit": "X Control"},
      {"measurement": "APTT Increase (X Control)", "setting": "[6]; dose 6 + 6 mg/kg + mg/kg/hr", "value": "2.73 ± 0.19", "unit": "X Control"},
      {"measurement": "APTT Increase (X Control)", "setting": "[6]; dose 12 + 12 mg/kg + mg/kg/hr", "value": "2.79 ± 0.26", "unit": "X Control"},
      {"measurement": "APTT Increase (X Control)", "setting": "[6]; dose 24 + 24 mg/kg + mg/kg/hr", "value": "3.29 ± 0.85", "unit": "X Control"},
      {"measurement": "APTT increase", "setting": "[6]; range of efficacious doses 2+2, 6+6, 12+12 mg/kg+mg/kg/hr", "value": "about 2.8 times control"}
    ]}
  ]
}
